The values below come from publication PMC5532363, “Synergistic blending of high-valued heterocycles inhibits growth of Plasmodium falciparum in culture and P. berghei infection in mouse model” (Scientific Reports, 2017).

For the test, the system named is P. berghei NK65. In words: Modified Peter's 4-day suppressive test in P. berghei NK65 infected Swiss albino mice. Type of test: in vivo, Plasmodium berghei. Particulars: 6h/6u 50 mg/kg, artemisinin 5 mg/kg, s.c. for four consecutive days, n = 6/group. As for the experimental part:
The antimalarial effect of two active analogues, 6h and 6u (administered at 50 mg/kg of body weight), was determined in mice infected with P. berghei NK65, a strain, which results in high levels of blood-stage parasitemia. […] However, the 6u analogue had better antimalarial efficacy than the 6h analogue (Fig. 6A). As such, we then evaluated the efficacy of 6u (50 mg/kg) in combination with artemisinin (5 mg/kg of body weight) at reduced dosage in the murine malaria model. […] The median survival times of animals treated with Pht 6u alone, as well in combination with ART were 23 and 27.5 days, respectively (P<0.001).
Figure 6 Antimalarial effect of Pht analogs (6h and 6u) alone and in combination with Artemisinin (6u and ART) on parasitemia and survival in mice infected with P. berghei NK65. Mice were injected with 1 × 10^7 P. berghei infected RBCs. After 48 hours mice were treated with control (PBS: untreated), 6h and 6u (alone), and 6u in combination with artemisinin (all injected subcutaneously) for four consecutive days. The % of parasitemia was determined for the groups on days 5, 8 and 15 by randomly selecting 10 different optical fields on blood smears. (A) Administration of 6h and 6u (alone), and 6 u in combination with ART. Data are the mean ± SEM from six animals per treatment group. (B) Survival in the treatment groups (n = 6/group). (C) Photomicrograph of blood smears of untreated versus treatment groups at day 15 post infection (100x magnification). ART, Artemisinin; *P < 0.05. TEXT PRINTED IN THE PICTURE: (B) Phthalimide 6h: MST- 19.5 | (B) Phthalimide 6u: MST- 23 | (B) Artemisinin: MST- 21.5 | (B) Phthalimide 6u+Artemisinin: MST- 27.5
All animal experiments were performed in female Swiss albino mice (4 to 5 weeks old, weighing 25 to 30 g). The animals were housed under standard controlled conditions at 25 °C with a 12-h light-dark cycle and access to sterilized food pellets and water. All experiments were carried out in accordance with the standard procedures approved by the Animal Ethics Committee of the University of Delhi South Campus, under the Control and Supervision of Experiments on Animals (CPCSEA), Ministry of Social Justice and Empowerment, Government of India. […] The antimalarial activity was carried out in accordance with a slightly modified version of the Peter’s 4-day suppressive test[43]. The animals were assigned to each group (n = 6). Subsequently, after 48 hour of postinfection, the parasitemia level reached 1 to 2%, and all the groups of mice were treated by subcutaneous (s.c.) injection with compounds 6h and 6u alone as well in combination with artemisinin solubilized in DMSO. One group was kept as a control and treated with physiological saline. The efficacy of the treatment was monitored by measuring the parasitemia and survival on days 5, 8 and 15 posttreatments by obtaining thin smears of blood withdrawn from the tail vein of infected mice and staining with 10% Giemsa. The level of parasitemia was determined by counting infected and noninfected erythrocytes from 10 to 15 randomly selected optical fields at 100x magnification and expressed as the number of infected erythrocytes per 100 erythrocytes. The survival of mice was recorded and observed for external symptoms, such as change in body weight, ruffled fur, lethargy and paralysis, until 30 or 40 days posttreatment. The reduction in the level of parasitemia was taken as the index for the curative activities of the drugs. The percentage of parasitemia was calculated manually with the Cell Counting Aid software[44] using the formula (total no. of parasitized RBCs)/(total no. of RBCs) × 100.
For in-vivo experiments, statistical differences between two groups were determined by Student’s t test and between multiple groups using one-way analysis of variance (ANOVA), with P values of <0.05, by GraphPad Prism (version 5.01; GraphPad Software, Inc., CA). […]

`C[C@@H]1CC[C@H]2[C@@H](C)C(=O)O[C@@H]3O[C@@]4(C)CC[C@@H]1[C@]32OO4` [Artemisinin, reference compound]: the “median survival time (MST)” value is 21.5 days.
